Test results published in the NIST ThermoML archive (doi:10.1016/j.jct.2010.10.016).
± gives the expanded uncertainty stated by the source.

Test: relative permittivity at various frequencies (dimensionless); xn = mol fraction of the nth substance listed
Conditions: 101 kPa, Liquid, Frequency=3 MHz, AC method

Structure (SMILES): CCCCOCCO [2-butoxyethan-1-ol] + C[N+](=O)[O-]
- relative permittivity (293.15 K, x2 = 0): 9.78 ± 0.04
- relative permittivity (293.15 K, x2 = 0.05): 12.57 ± 0.05
- relative permittivity (293.15 K, x2 = 0.0999): 14.98 ± 0.05
- relative permittivity (293.15 K, x2 = 0.2): 19.71 ± 0.05
- relative permittivity (293.15 K, x2 = 0.3): 24.36 ± 0.06
- relative permittivity (293.15 K, x2 = 0.4): 28.77 ± 0.06
- relative permittivity (293.15 K, x2 = 0.5): 32.64 ± 0.06
- relative permittivity (293.15 K, x2 = 0.6): 35.72 ± 0.06
- relative permittivity (293.15 K, x2 = 0.7001): 38.28 ± 0.06
- relative permittivity (293.15 K, x2 = 0.8): 40.28 ± 0.05
- relative permittivity (293.15 K, x2 = 0.9005): 40.93 ± 0.05
- relative permittivity (293.15 K, x2 = 0.95): 39.91 ± 0.05
- relative permittivity (298.15 K, x2 = 0): 9.35 ± 0.04
- relative permittivity (298.15 K, x2 = 0.05): 11.95 ± 0.05
- relative permittivity (298.15 K, x2 = 0.0999): 14.28 ± 0.05
- relative permittivity (298.15 K, x2 = 0.2): 18.87 ± 0.05
- relative permittivity (298.15 K, x2 = 0.3): 23.34 ± 0.06
- relative permittivity (298.15 K, x2 = 0.4): 27.63 ± 0.06
- relative permittivity (298.15 K, x2 = 0.5): 31.38 ± 0.07
- relative permittivity (298.15 K, x2 = 0.6): 34.44 ± 0.07
- relative permittivity (298.15 K, x2 = 0.7001): 36.93 ± 0.07
- relative permittivity (298.15 K, x2 = 0.8): 38.93 ± 0.07
- relative permittivity (298.15 K, x2 = 0.9005): 39.67 ± 0.07
- relative permittivity (298.15 K, x2 = 0.95): 38.78 ± 0.07
- relative permittivity (303.15 K, x2 = 0): 8.88 ± 0.04
- relative permittivity (303.15 K, x2 = 0.05): 11.28 ± 0.05
- relative permittivity (303.15 K, x2 = 0.0999): 13.54 ± 0.05
- relative permittivity (303.15 K, x2 = 0.2): 18 ± 0.05
- relative permittivity (303.15 K, x2 = 0.3): 22.34 ± 0.06
- relative permittivity (303.15 K, x2 = 0.4): 26.37 ± 0.06
- relative permittivity (303.15 K, x2 = 0.5): 29.98 ± 0.07
- relative permittivity (303.15 K, x2 = 0.6): 32.99 ± 0.07
- relative permittivity (303.15 K, x2 = 0.7001): 35.47 ± 0.07
- relative permittivity (303.15 K, x2 = 0.8): 37.36 ± 0.07
- relative permittivity (303.15 K, x2 = 0.9005): 37.93 ± 0.07
- relative permittivity (303.15 K, x2 = 0.95): 37.3 ± 0.07
- relative permittivity (308.15 K, x2 = 0): 8.39 ± 0.04
- relative permittivity (308.15 K, x2 = 0.05): 10.61 ± 0.05
- relative permittivity (308.15 K, x2 = 0.0999): 12.78 ± 0.05
- relative permittivity (308.15 K, x2 = 0.2): 17.16 ± 0.05
- relative permittivity (308.15 K, x2 = 0.3): 21.34 ± 0.06
- relative permittivity (308.15 K, x2 = 0.4): 25.27 ± 0.06
- relative permittivity (308.15 K, x2 = 0.5): 28.79 ± 0.06
- relative permittivity (308.15 K, x2 = 0.6): 31.85 ± 0.06
- relative permittivity (308.15 K, x2 = 0.7001): 34.31 ± 0.06
- relative permittivity (308.15 K, x2 = 0.8): 36 ± 0.07
- relative permittivity (308.15 K, x2 = 0.9005): 36.51 ± 0.07
- relative permittivity (308.15 K, x2 = 0.95): 36.07 ± 0.06
- relative permittivity (313.15 K, x2 = 0): 7.91 ± 0.04
- relative permittivity (313.15 K, x2 = 0.05): 9.96 ± 0.05
- relative permittivity (313.15 K, x2 = 0.0999): 12.04 ± 0.05
- relative permittivity (313.15 K, x2 = 0.2): 16.23 ± 0.06
- relative permittivity (313.15 K, x2 = 0.3): 20.28 ± 0.06
- relative permittivity (313.15 K, x2 = 0.4): 24.13 ± 0.06
- relative permittivity (313.15 K, x2 = 0.5): 27.65 ± 0.07
- relative permittivity (313.15 K, x2 = 0.6): 30.75 ± 0.07
- relative permittivity (313.15 K, x2 = 0.7001): 33.16 ± 0.07
- relative permittivity (313.15 K, x2 = 0.8): 34.68 ± 0.08
- relative permittivity (313.15 K, x2 = 0.9005): 35.07 ± 0.08
- relative permittivity (313.15 K, x2 = 0.95): 34.84 ± 0.07

Structure (SMILES): C[N+](=O)[O-] [nitromethane] + COCCO
- relative permittivity (293.15 K, x1 = 0.05): 19.49 ± 0.05
- relative permittivity (293.15 K, x1 = 0.0998): 21.49 ± 0.05
- relative permittivity (293.15 K, x1 = 0.2): 25.34 ± 0.05
- relative permittivity (293.15 K, x1 = 0.3): 29.02 ± 0.05
- relative permittivity (293.15 K, x1 = 0.4): 32.43 ± 0.05
- relative permittivity (293.15 K, x1 = 0.5): 35.32 ± 0.05
- relative permittivity (293.15 K, x1 = 0.6): 37.67 ± 0.06
- relative permittivity (293.15 K, x1 = 0.7): 39.53 ± 0.06
- relative permittivity (293.15 K, x1 = 0.8002): 40.88 ± 0.05
- relative permittivity (293.15 K, x1 = 0.8999): 40.91 ± 0.06
- relative permittivity (293.15 K, x1 = 0.9503): 39.82 ± 0.05
- relative permittivity (293.15 K, x1 = 1): 37.31 ± 0.05
- relative permittivity (298.15 K, x1 = 0.05): 18.95 ± 0.05
- relative permittivity (298.15 K, x1 = 0.0998): 20.81 ± 0.05
- relative permittivity (298.15 K, x1 = 0.2): 24.57 ± 0.05
- relative permittivity (298.15 K, x1 = 0.3): 28.08 ± 0.05
- relative permittivity (298.15 K, x1 = 0.4): 31.42 ± 0.06
- relative permittivity (298.15 K, x1 = 0.5): 34.24 ± 0.06
- relative permittivity (298.15 K, x1 = 0.6): 36.51 ± 0.06
- relative permittivity (298.15 K, x1 = 0.7): 38.31 ± 0.06
- relative permittivity (298.15 K, x1 = 0.8002): 39.53 ± 0.06
- relative permittivity (298.15 K, x1 = 0.8999): 39.5 ± 0.07
- relative permittivity (298.15 K, x1 = 0.9503): 38.54 ± 0.07
- relative permittivity (298.15 K, x1 = 1): 36.52 ± 0.05
- relative permittivity (303.15 K, x1 = 0.05): 18.48 ± 0.05
- relative permittivity (303.15 K, x1 = 0.0998): 20.26 ± 0.05
- relative permittivity (303.15 K, x1 = 0.2): 23.89 ± 0.05
- relative permittivity (303.15 K, x1 = 0.3): 27.27 ± 0.05
- relative permittivity (303.15 K, x1 = 0.4): 30.47 ± 0.06
- relative permittivity (303.15 K, x1 = 0.5): 33.22 ± 0.06
- relative permittivity (303.15 K, x1 = 0.6): 35.49 ± 0.06
- relative permittivity (303.15 K, x1 = 0.7): 37.26 ± 0.06
- relative permittivity (303.15 K, x1 = 0.8002): 38.38 ± 0.06
- relative permittivity (303.15 K, x1 = 0.8999): 38.23 ± 0.07
- relative permittivity (303.15 K, x1 = 0.9503): 37.28 ± 0.06
- relative permittivity (303.15 K, x1 = 1): 35.66 ± 0.05
- relative permittivity (308.15 K, x1 = 0.05): 17.81 ± 0.05
- relative permittivity (308.15 K, x1 = 0.0998): 19.57 ± 0.05
- relative permittivity (308.15 K, x1 = 0.2): 23.11 ± 0.05
- relative permittivity (308.15 K, x1 = 0.3): 26.43 ± 0.06
- relative permittivity (308.15 K, x1 = 0.4): 29.45 ± 0.06
- relative permittivity (308.15 K, x1 = 0.5): 32.16 ± 0.06
- relative permittivity (308.15 K, x1 = 0.6): 34.47 ± 0.06
- relative permittivity (308.15 K, x1 = 0.7): 36.18 ± 0.06
- relative permittivity (308.15 K, x1 = 0.8002): 37.08 ± 0.07
- relative permittivity (308.15 K, x1 = 0.8999): 36.88 ± 0.07
- relative permittivity (308.15 K, x1 = 0.9503): 36.1 ± 0.07
- relative permittivity (308.15 K, x1 = 1): 34.92 ± 0.05
- relative permittivity (313.15 K, x1 = 0.05): 17.21 ± 0.05
- relative permittivity (313.15 K, x1 = 0.0998): 18.85 ± 0.05
- relative permittivity (313.15 K, x1 = 0.2): 22.12 ± 0.06
- relative permittivity (313.15 K, x1 = 0.3): 25.3 ± 0.06
- relative permittivity (313.15 K, x1 = 0.4): 28.29 ± 0.06
- relative permittivity (313.15 K, x1 = 0.5): 31.09 ± 0.06
- relative permittivity (313.15 K, x1 = 0.6): 33.47 ± 0.06
- relative permittivity (313.15 K, x1 = 0.7): 35.12 ± 0.07
- relative permittivity (313.15 K, x1 = 0.8002): 35.78 ± 0.08
- relative permittivity (313.15 K, x1 = 0.8999): 35.27 ± 0.08
- relative permittivity (313.15 K, x1 = 0.9503): 34.7 ± 0.07
- relative permittivity (313.15 K, x1 = 1): 34.09 ± 0.05
